One experiment concerns DAOY cells. Put plainly: Immunofluorescence of alpha-tubulin and Plk-1 in DAOY cells. Particulars: 5 μM, 4 hours. The class given is cell-based, human. The protocol:
DAOY cells growing in tissue culture were exposed to 5 μM Compound 100 for 4 hours. The cells were rinsed, fixed, and stained for immunofluorescent recognition of alpha-tubulin and Plk-1. Control cells at the left show in the upper left panel diffuse staining for alpha-tubulin distributed throughout the cytoplasm. […] The lower right panel, stained for Plk-1, alpha-tubulin, and DNA show the almost pure extra nuclear location of homogeneously distributed alpha-tubulin. The right panel consists of 4 elements showing the effects of exposure to Compound 100.

The test system of a further experiment is TCTP. As to the kind of experiment: TCTP in U87 xenografts by 2-dimensional gel electrophoresis. The class given is in vivo, SCID mice. Particulars: 1.5 mg/kg IP, 4 hours. The protocol:
SCID mice were implanted with 5×10^6 U87 cells subcutaneously. On day 26, the mice were given 1.5 mg/kg Compound 100 by IP injection. The animals were sacrificed after 4 hours treatment and the subcutaneous mass of tumor cells were removed for 2-dimensional gel electrophoretic analysis. […] In the left panel, TCTP subsequently identified by LC-MS-MS is circled and shown in an enlargement of the gel.
SCID mice were implanted with 5 million U87 cells subcutaneously. On day 26, the mice were administered 1.5 mg/kg of compound 100 by intraperitoneal injection. The animals were sacrificed after 4 hours of treatment and the subcutaneous mass of tumor cells were removed for 2-dimensional gel electrophoretic analysis.

For experiment [1], the system named is DAOY medulloblastoma cells. Put plainly: DAOY medulloblastoma s.c. xenografts in SCID mice. The experiment is classed as in vivo. The settings on record: treatment from day 6, by day 23. As for the experimental part:
DAOY medulloblastoma cells were implanted subcutaneously into the flanks of SCID mice. On day 6, mice were divided into 3 groups, one group receiving Compound 100, one group receiving Compound 102, and one group receiving vehicle alone. The subcutaneous tumor masses were measured on day 6, day 13, day 18, and on day 23 when all animals were sacrificed. […] In this model DAOY cells, when untreated, reached their maximum growth about 2 weeks after implantation with slow regression thereafterwards.

A further experiment relates to human cancer cell lines. Put plainly: Cancer cell proliferation in cell culture. The experiment is classed as cell-based.
Experiment [2] concerns U87 glioblastoma multiforme cells. As to the kind of experiment: U87 s.c. xenografts in SCID mice, Compound 100. The class given is in vivo. The settings on record: treatment from day 7, measured to day 26. The protocol:
SCID mice were implanted with 5×10^6 U87 cells subcutaneously. On day 7 treatment was begun on half of the animals. The size of the subcutaneous mass of tumor cells was measured weekly until the animals were sacrificed on day 26.

Experiment [3] relates to DAOY medulloblastoma cells. Put plainly: Western blot of DAOY cell lysates for TCTP, p-Plk, total Plk. The class given is cell-based, human. The protocol:
DAOY cells in culture were exposed to Compound 100 for 4 hours and for 24 hours, and stained for TCTP, p-Plk and total Plk on western blots.
DAOY cells in culture were exposed to compound 100 for 4 hours and for 24 hours, and stained for TCTP, p-plk (phosphorylated plk), and total plk on western blots.

Experiment [4] relates to human glioblastoma cell line, U373. Put plainly: U373 growth in culture for 7 days, Compound 100 with standard cytotoxic drugs. The experiment is classed as cell-based. Particulars: Compound 100 2.5 uM, cisplatin 0.1 uM, doxorubicin 0.01 uM, taxol 0.3 nM. The protocol:
Cells were exposed to vehicle alone (control); Compound 100 at 2.5 uM; cisplatin at 0.1 uM; doxorubicin at 0.01 uM; or taxol at 0.3 nM alone or to the combination of Compound 100 plus each of the standard agents at the same concentrations. […] The expected percent inhibition at 7 days is the product of the inhibition by each agent alone.
Cells were exposed to vehicle alone (control); compound 100 at 2.5 μM, cisplatin at 0.1 μM; doxorubicin at 0.01 μM; or taxol at 0.3 nM alone or to the combination of compound 100 plus each of the standard agents at the same concentrations. […] The expected percent inhibition from a combination of drugs is calculated by multiplying the actual percent inhibition by each drug alone and comparing that product to the actual percent inhibition caused by the combination of the two drugs (Valeriote, 1975). The expected percent inhibition at 7 days is the product of the inhibition by each agent alone.

In experiment [5] the test system is U373 cells. Put plainly: Western blots of U373 cells. The experiment is classed as cell-based, human. Particulars: U373, 2 nM, 24 hours. The protocol:
(§1) 5×10^6 U87MG cells were inoculated s.c. into each flank of 20 SCID mice. When the xenografts were 0.5+/−0.1 cm (day 0), 5 animals each received i.p. vehicle alone days 1-12 (50% DMSO/H20); compound 102 alone at 1.5 mg/kg days 1-3, 5-7, & 9-11; TMZ alone at 80 mg/kg days 4, 8, 12; or both drugs at the same doses and schedules. If xenografts reached 1800 mm^3, animals were sacrificed. […] B, Survival curve combining the data from the study shown in FIG. 12A, with a second identical study involving a total of 10 animals with two xenografts each. Disease-free survival was defined as no recurrence of either xenografts. […] As in 12A, except that xenografts of SH-SY5Y cells were implanted in one flank only and animals were treated with one additional cycle of drugs, i.e., compound 102 on days 13-15, TMZ, on day 16, and compound 102 plus TMZ on the same schedules. […] E, Western blots of U87 cells in culture 24 hours after exposure to compound 102 at 2.5 uM, TMZ at 25 uM or DOX at 2 uM, and compound 102 plus TMZ or DOX. F, Western blots of U373 cells 24 hours after exposure to compound 102 at 2.5 uM, doxorubicin at 2 uM, and both drugs. G, Western blots of U373 cells 24 hours after exposure to TMZ at 25 uM, okadaic acid at 2 nM, and both drugs.

The subject of a further experiment is U87MG xenografts. As to the kind of experiment: U87MG s.c. xenografts in SCID mice, compound 102 and TMZ. The experiment is classed as in vivo. Particulars: same doses and schedules. As for the experimental part:
as §1
To determine the impact of altering DNA-damage defense mechanisms by inhibiting PP2A on the efficacy of cytotoxic chemotherapy, the effects of compound 102 combined with TMZ, a non-specific DNA-methylating drug, routinely used for the palliative treatment of GBM patients (Prados et al, 2008), were studied. SCID mice bearing s.c. xenografts of either the GBM line U87MG or the neuroblastoma line SH-SY5Y were treated with vehicle alone, compound 102 alone, TMZ alone, or both drugs at the same doses and schedules as when given alone.

Experiment [6] relates to U373 cells. Put plainly: Cell cycle distribution of U373 cells by FACS. The class given is cell-based, human. Particulars: U373, 48 hours. As for the experimental part: Cells in unsynchronized logarithmic growth were exposed to vehicle or drug and adherent cells and cells in the media were collected. Harvested cells were fixed with 70% cold ethanol for 20 min at −20 degrees, washed with PBS, and stained with 10 ug/ml of PI and 1 ug/ml RNAse in TBS for 30 minutes and analyzed by FACS. A, Flow cytometry profiles of U87 cells after exposures to DMSO only, compound 102 only, 5 uM; TMZ only, 25 uM; compound 102 with TMZ combination, doxorubicin only, 2.0 uM and compound 102 with doxorubicin combination. B, Flow cytometry profiles of U373 cells. Exposures as in A, and C, Schema of proposed mechanisms of compound 102 enhancement of cancer chemotherapy.
We analyzed cell cycle patterns of U87MG and U373 cells 48 hours after exposure to TMZ or DOX alone and in combination with compound 102.

The next experiment relates to U87MG cells. As to the kind of experiment: Cellular and molecular changes in U87MG cells (Western blots, IFS). The experiment is classed as cell-based, human. The settings on record: U87MG, 24 hours; compound 102 2.5 uM, TMZ 25 uM, DOX 2 uM. As for the experimental part:
D, Western blots of U87 lysates: TCTP, pPlk (Tre-210), total Plk, and β-actin. E, IFS of TCTP in U87 cells, F, Western blots p53 (ser-15), pMDM2 (ser-166), and β-actin and G, IFS of p53 (ser-15).
as §1
TCTP is an abundant, highly conserved, multifunctional protein that binds to and stabilizes microtubules before and after mitosis and also exerts potent anti-apoptotic activity (Bommer and Thiele, 2004; Yarm, 2002; Susini et al, 2008) (FIG. 11E).
[…] Akt-1 activation, however, may be anti- or proapoptotic depending on the context of cell signaling (Andrabi et al, 2007).
The effects of compound 102, TMZ, doxorubicin (DOX), a widely used anti-cancer drug that disrupts DNA replication, compound 102 plus TMZ, and compound 102 plus DOX on the amount of pAkt, p53 and MDM2 in U87MG, a cell line with wild-type p53, and in U373, a cell line with mutant p53 (Short et al, 2007) were assessed by Western blots.

Each structure is given as a SMILES string. Where “and” joins values, the source holds several entries; their conditions need not be identical. Equal values may be shown once.

With `CN1CCN(C(=O)C2C(C(=O)O)[C@H]3CC[C@@H]2O3)CC1` (some centres unmarked) [Compound 100], the alpha-tubulin distribution result in the experiment with DAOY cells is “marked distortion of the homogeneous distribution”. In the experiment on TCTP, the “TCTP concentration in U87 xenografts” value is on record as “diminution in TCTP”. The “DAOY subcutaneous tumor mass” value in experiment [1] is recorded as “marked regression”. Further, the “inhibition of human cancer cell lines” value in the experiment with human cancer cell lines (breast, colon, stomach, liver, ovary, prostate, brain, lung, leukemias, lymphomas) is recorded as “dose dependent inhibition”. The “effect of higher doses on tumor cells” value in the experiment with human cancer cell lines (higher doses) was “mitotic catastrophe and cell death”. Besides, the “growth of tumor cells at non-inhibitory doses” value in the experiment on human cancer cell lines (submicromolar to very low micromolar concentrations) is recorded as “slight but clear-cut stimulation”. For the same compound, the “U87 subcutaneous xenograft growth” value in experiment [2] was “Inhibition”. Further, in experiment [3] (4 hours), the “Plk-1 phosphorylation (western blot)” value is reported as “increase” and the “TCTP (western blot)” value was “decrease”. For the same compound, the “TCTP (western blot)” value in experiment [3] (24 hours) was “no TCTP is detectable”. In addition, the “inhibition at 7 days by agent alone” value in [4] is reported as 71%.

With `C=C1[C@@H](O)[C@@H]2O[C@]3(CC[C@H](/C=C/[C@@H](C)[C@@H]4CC(C)=C[C@@]5(O[C@H](C[C@@](C)(O)C(=O)O)CC[C@H]5O)O4)O3)CC[C@H]2O[C@@H]1[C@@H](O)C[C@H](C)[C@H]1O[C@@]2(CCCCO2)CC[C@H]1C` [Okadaic acid, okadaic acid, reference compound], in the experiment on U373 cells [5], the “effects on pAkt-1 and on mutant p53” value is reported as “mimicked the effects of compound 102”.

As to `Cn1nnc2c(C(N)=O)ncn2c1=O` [TMZ, temozolomide, reference compound], the “time of sacrifice (xenografts reached 1800 mm^3)” value with U87MG xenografts was 7-9 week.

Consider `N.N.[Cl][Pt][Cl]` [cisplatin], for which, in experiment [4], the “inhibition at 7 days by agent alone” value was 93.5% and 93%.

For `COc1cccc2c1C(=O)c1c(O)c3c(c(O)c1C2=O)C[C@@](O)(C(=O)CO)C[C@@H]3O[C@H]1C[C@H](N)[C@H](O)[C@H](C)O1` [doxorubicin, reference compound], the G1 phase cells entry in the experiment with U373 cells [6] (compound 102 5 uM, TMZ 25 uM, doxorubicin 2.0 uM) is “reduced”. In the experiment with U373 cells [6] (same concentrations), the G2/M phase cells entry is reported as “reduced” and the S phase cells result was “greatly increased”. Besides, in the experiment with U87MG cells, the MDM2 entry is “little effect”, the p53 entry was “increased” and the pAkt-1 result is “decreased”.

Source of the values: patent US9526915B2, “Methods for regulating cell mitosis by inhibiting serine/threonine phosphatase” (priority 2008, dated 2016).
